From PMC6681348 (Biomolecules, 2019)
“Also recorded” adds a separate entry of the source. Like-named read-outs stand apart in the source and are kept apart here. Positions of bridges follow the written chain, without caps; N, C: chain ends. Residues, ends and D or L forms follow the SMILES beside them. No end group written: not given here.

Assays:
trypsin [1] = assay: trypsin cleavage assay; settings: up to 20 min
trypsin [2] = settings: read-out: Ki, trypsin inhibition; cited from earlier work
Description: Odorous frogs are distributed in East Asia and the surrounding areas, and they are named because of their smelly skin secretion, which plays a fundamental role in defensive systems. To date, hundreds of functional peptides have been isolated from Odorrana skin secretion, not only many potent antimicrobial peptides but also trypsin inhibitors. […] Combined with the data obtained from trypsin cleavage, each segment of both Kunitzin-OV and Kunitzin-RE was cleaved by trypsin via typical cleavage site Lys and Arg. […] Therefore, we assumed that the Lys close to the region of the protease-binding loop could act as a competitive position for trypsin activity ...

all tested microbes = settings: single loop synthesized alone; cited from earlier work
Description: The results just corresponded to the physicochemical properties of these two peptides.

trypsin [3] = assay: trypsin cleavage; settings: cited from earlier work
horse red blood cells = horse red blood cells 4% v/v, 37 °C, 2 h, concentrations up to 512 µM; 1% Triton X-100 = 100% haemolysis
Procedure: As described in the previous study, a suspension of horse red blood cells (4%, v/v) (TCS Biosciences, Botolph Claydon, Buckingham, UK) was incubated with peptides of the concentration range of 1 µM to 512 µM at 37 °C for 2 h to determine the peptide haemolytic activity. The positive control employed 1% TritonX-100 (Sigma, UK).

[4] = system: Escherichia coli (NCTC 10418); settings: MHB, broth dilution, 1-512 µM two-fold, 5 × 10^5 cfu/mL, seven replicates
Procedure: (§1) Staphylococcus aureus (NCTC 10788), Escherichia coli (NCTC 10418), and Candida albicans (NCPF 1467) were applied in the antimicrobial test. They all were cultured in Mueller-Hinton Broth (MHB). […] Peptides were incubated with subcultured bacteria cells (5 × 10^5 cfu/mL) and each concentration was performed in seven replicates.

[5] = system: Candida albicans (NCPF 1467); settings: MHB, broth dilution, 1-512 µM two-fold, 5 × 10^5 cfu/mL, seven replicates
Procedure: as §1

[6] = system: Staphylococcus aureus (NCTC 10788); settings: MHB, broth dilution, 1-512 µM two-fold, 5 × 10^5 cfu/mL, seven replicates
Procedure: as §1

chymotrypsin = assay: Chymotrypsin inhibition assay; type: biochemical; settings: substrate Succinyl-Ala-Ala-Pro-Phe-NHMec, duplicates
Procedure: (§2) The inhibitory activity of peptides towards trypsin and chymotrypsin was tested the same as detailed in Wang’s study. Peptides were initially prepared in a range of 10^−3–10^−6 M and then diluted to 16 concentrations. Each dilution was tested in duplicates. Additionally, Phe-Pro-Arg-AMC and Succinyl-Ala-Ala-Pro-Phe-NHMec (obtained from Bachem, UK) were served as substrates for trypsin and chymotrypsin, respectively.

trypsin [7] = assay: Trypsin inhibition assay; type: biochemical; settings: substrate Phe-Pro-Arg-AMC; for trypsin inhibitory activity (in words): 16 concentrations, duplicates
Procedure: as §2

With ALKYPFRCKAAFC the fragment found (trypsin [1]) was “ALKYPFR, first_seen, 0 min”.

In the case of “AVNIPFKVHFRCKAAFC (disulfide 12-17 (inferred)) [OGTI]”, the Ki (trypsin [2]) is given as 400 nM.

In the case of “-CKAAFC- (disulfide) [single disulfide loop of kunitzins synthesized alone by Chen and colleagues]”, the “antimicrobial activity (in words)” value (all tested microbes) is listed as “no activity was observed”.

For AAKIILNPKFRCKAAFC, the not cleaved (trypsin [3]) is listed as “this did not happen to Kunitzin-RE”.

For CC(C)C[C@H](NC(=O)[C@H](C)N)C(=O)N[C@@H](CCCCN)C(=O)N[C@@H](Cc1ccc(O)cc1)C(=O)N1CCC[C@H]1C(=O)N[C@@H](Cc1ccccc1)C(=O)N[C@@H](CCCNC(=N)N)C(=O)N[C@H]1CSSC[C@@H](C(=O)O)NC(=O)[C@H](Cc2ccccc2)NC(=O)[C@H](C)NC(=O)[C@H](C)NC(=O)[C@H](CCCCN)NC1=O [Kunitzin-OV] (H-ALKYPFRCKAAFC-OH; disulfide 8-13), the haemolytic activity (horse red blood cells) was “less than 10%”, the “Minimum Inhibitory Concentration E. coli” value [4] was 512 µM and the “Minimum Inhibitory Concentration C. albicans” value [5] was 512 µM. The “Minimum Inhibitory Concentration S. aureus” value [6] was 512 µM.

In the case of CC(C)C[C@H](NC(=O)[C@H](C)N)C(=O)N[C@@H](CCCCN)C(=O)N[C@@H](Cc1ccc(O)cc1)C(=O)N1CCC[C@H]1C(=O)N[C@@H](Cc1ccccc1)C(=O)N[C@@H](CCCNC(=N)N)C(=O)N[C@H]1CSSC[C@@H](C(=O)O)NC(=O)[C@H](Cc2ccccc2)NC(=O)[C@H](C)NC(=O)[C@H](C)NC(=O)[C@H](Cc2ccccc2)NC1=O [F^9-Kunitzin-OV] (H-ALKYPFRCFAAFC-OH; disulfide 8-13 (inferred); N-terminus and C-terminus assumed), the Ki (chymotrypsin; 16 concentrations from 10^-3-10^-6 M, Morrison plot, read-out: Ki, chymotrypsin inhibitory activity) is reported as 11800 ± 2090 nM, the “chymotrypsin inhibitory activity (in words)” value (chymotrypsin; 16 concentrations) is reported as “optimized chymotrypsin inhibitory activity” and the “trypsin inhibitory activity (in words)” value (trypsin [7]) is reported as “undetected; also recorded: disappeared; also recorded: vanished”. For the same molecule, the “trypsin inhibitory activity (in words)” value (trypsin [7]; listed as site-substituted analogue) was “eliminated”.

B1: ovomucoid inhibitor (chicken): chicken egg white trypsin inhibitor Type III-O, more than 200 amino acid residues, served as a contrast (protein, UniProt P01005 25-210, looked up)
Ovomucoid: AEVDCSRFPNATDKEGKDVLVCNKDLRPICGTDGVTYTNDCLLCAYSIEFGTNISKEHDGECKETVPMNCSSYANTTSEDGKVMVLCNRAFNPVCGTDGVTYDNECLLCAHKVEQGASVDKRHDGGCRKELAAVSVDCSEYPKPDCTAEDRPLCGSDNKTYGNKCNFCNAVVESNGTLTLSHFGKC
In the case of B1, the “trypsin inhibitory activity (in words)” value (trypsin [7]) is reported as “more potent inhibitory activity than Kunitzin-OV”, the “trypsin inhibitory activity (in words)” value (trypsin [7]; listed as chicken egg white trypsin inhibitor Type III-O) is reported as “faster and stronger inhibitory efficacy on trypsin than Kunitzin-OV” and the Ki (trypsin [7]; Morrison plot, contrast inhibitor) is reported as 3.49 ± 0.505 nM.
